This passage reports IC50 results from patent US12492188B2, “1H-benzo[D]imidazole derivatives as TLR9 inhibitors for the treatment of fibrosis” (BRISTOL-MYERS SQUIBB COMPANY, priority 2020, dated 2025).

Common to all, as to type: cell-based
One assay deals with T1, human TLR8 (Homo sapiens, UniProt Q9NR97).
T1 construct: host or cells: HEK-Blue cells (HEK293-derived reporter line)
T1 sequence (Q9NR97 27-1041): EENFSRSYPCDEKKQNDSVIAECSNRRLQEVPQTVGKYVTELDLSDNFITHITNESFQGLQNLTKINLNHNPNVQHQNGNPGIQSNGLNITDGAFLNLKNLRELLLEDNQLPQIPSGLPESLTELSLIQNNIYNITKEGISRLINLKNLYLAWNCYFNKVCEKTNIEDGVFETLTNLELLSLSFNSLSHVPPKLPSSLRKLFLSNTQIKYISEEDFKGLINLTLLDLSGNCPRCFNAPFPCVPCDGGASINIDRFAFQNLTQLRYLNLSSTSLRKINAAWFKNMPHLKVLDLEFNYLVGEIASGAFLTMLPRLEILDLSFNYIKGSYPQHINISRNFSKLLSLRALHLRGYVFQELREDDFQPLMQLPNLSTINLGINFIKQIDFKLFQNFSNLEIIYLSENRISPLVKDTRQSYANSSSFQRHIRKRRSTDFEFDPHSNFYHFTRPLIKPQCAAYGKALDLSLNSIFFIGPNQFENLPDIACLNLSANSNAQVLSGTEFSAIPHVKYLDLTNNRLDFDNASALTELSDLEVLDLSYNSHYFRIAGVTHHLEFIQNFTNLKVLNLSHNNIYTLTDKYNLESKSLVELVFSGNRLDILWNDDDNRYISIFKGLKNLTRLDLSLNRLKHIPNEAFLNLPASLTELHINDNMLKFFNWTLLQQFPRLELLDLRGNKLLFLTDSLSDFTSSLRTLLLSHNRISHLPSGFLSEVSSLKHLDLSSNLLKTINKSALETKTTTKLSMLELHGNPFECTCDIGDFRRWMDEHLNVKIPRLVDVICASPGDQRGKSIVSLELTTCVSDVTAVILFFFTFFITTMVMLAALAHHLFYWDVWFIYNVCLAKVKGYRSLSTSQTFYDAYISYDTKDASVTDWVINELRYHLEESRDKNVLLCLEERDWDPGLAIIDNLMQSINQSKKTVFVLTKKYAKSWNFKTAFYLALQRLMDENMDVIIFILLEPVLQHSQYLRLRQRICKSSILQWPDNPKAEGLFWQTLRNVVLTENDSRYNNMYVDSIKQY
Put plainly: TLR8 inhibition reporter assay (HEK-Blue cells, secreted embryonic alkaline phosphatase reporter). The settings on record: HEK-Blue cells overexpressing human TLR8, stimulated with R848 15.9 μM; read-out: TLR 8 IC50. The procedure, abridged: (§1)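 HEK-Blue cells expressing human TLR7, TLR8 or TLR9 with an NF-κB/AP-1-driven SEAP reporter were pretreated with compound (0.05 nM–50 μM final) for 30 min at room temperature. Agonists were gardiquimod 7.5 μM for TLR7, R848 15.9 μM for TLR8 and ODN2006 5 nM for TLR9. SEAP was read after 22 h at 37 °C, and inhibition was calculated relative to agonist-plus-DMSO and known-inhibitor controls.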

The target in the next assay is T2, human TLR9 (Homo sapiens, UniProt Q9NR96).
T2 construct: host or cells: HEK-Blue cells (HEK293-derived reporter line)
T2 sequence (Q9NR96 26-1032): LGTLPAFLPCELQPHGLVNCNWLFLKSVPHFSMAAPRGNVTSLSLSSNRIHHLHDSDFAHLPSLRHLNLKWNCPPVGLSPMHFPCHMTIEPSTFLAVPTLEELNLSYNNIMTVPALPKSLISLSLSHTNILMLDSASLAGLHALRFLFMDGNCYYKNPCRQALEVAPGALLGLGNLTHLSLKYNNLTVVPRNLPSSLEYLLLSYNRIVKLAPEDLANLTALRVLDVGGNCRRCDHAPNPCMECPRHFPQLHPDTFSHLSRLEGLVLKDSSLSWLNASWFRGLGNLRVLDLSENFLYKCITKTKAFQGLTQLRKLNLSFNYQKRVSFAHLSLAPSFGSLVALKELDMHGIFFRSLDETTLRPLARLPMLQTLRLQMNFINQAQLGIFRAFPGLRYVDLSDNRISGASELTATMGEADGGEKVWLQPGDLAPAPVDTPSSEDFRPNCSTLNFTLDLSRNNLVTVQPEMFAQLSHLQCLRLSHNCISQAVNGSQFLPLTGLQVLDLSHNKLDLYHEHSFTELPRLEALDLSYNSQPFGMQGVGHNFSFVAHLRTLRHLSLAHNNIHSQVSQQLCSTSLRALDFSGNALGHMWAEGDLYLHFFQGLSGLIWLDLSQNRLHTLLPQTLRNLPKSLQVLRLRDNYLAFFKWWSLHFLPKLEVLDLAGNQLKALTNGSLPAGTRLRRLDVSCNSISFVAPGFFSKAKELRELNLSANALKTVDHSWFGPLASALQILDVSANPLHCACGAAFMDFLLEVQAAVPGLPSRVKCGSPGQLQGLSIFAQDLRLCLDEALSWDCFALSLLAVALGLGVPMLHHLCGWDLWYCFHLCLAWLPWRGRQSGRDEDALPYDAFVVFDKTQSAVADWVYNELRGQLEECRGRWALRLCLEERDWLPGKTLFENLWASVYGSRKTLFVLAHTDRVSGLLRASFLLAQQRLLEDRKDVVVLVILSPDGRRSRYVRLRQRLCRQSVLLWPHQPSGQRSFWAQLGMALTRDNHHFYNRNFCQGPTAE
Nature of the assay: TLR9 inhibition reporter assay (HEK-Blue cells, secreted embryonic alkaline phosphatase reporter). The procedure, abridged:
as §1
On the technique in general: In a reporter assay the amount or activity of a reporter protein is the signal.

In the next assay the target is T3, human TLR7 (Homo sapiens, UniProt Q9NYK1).
T3 construct: host or cells: HEK-Blue cells (HEK293-derived reporter line)
T3 sequence (Q9NYK1 27-1049): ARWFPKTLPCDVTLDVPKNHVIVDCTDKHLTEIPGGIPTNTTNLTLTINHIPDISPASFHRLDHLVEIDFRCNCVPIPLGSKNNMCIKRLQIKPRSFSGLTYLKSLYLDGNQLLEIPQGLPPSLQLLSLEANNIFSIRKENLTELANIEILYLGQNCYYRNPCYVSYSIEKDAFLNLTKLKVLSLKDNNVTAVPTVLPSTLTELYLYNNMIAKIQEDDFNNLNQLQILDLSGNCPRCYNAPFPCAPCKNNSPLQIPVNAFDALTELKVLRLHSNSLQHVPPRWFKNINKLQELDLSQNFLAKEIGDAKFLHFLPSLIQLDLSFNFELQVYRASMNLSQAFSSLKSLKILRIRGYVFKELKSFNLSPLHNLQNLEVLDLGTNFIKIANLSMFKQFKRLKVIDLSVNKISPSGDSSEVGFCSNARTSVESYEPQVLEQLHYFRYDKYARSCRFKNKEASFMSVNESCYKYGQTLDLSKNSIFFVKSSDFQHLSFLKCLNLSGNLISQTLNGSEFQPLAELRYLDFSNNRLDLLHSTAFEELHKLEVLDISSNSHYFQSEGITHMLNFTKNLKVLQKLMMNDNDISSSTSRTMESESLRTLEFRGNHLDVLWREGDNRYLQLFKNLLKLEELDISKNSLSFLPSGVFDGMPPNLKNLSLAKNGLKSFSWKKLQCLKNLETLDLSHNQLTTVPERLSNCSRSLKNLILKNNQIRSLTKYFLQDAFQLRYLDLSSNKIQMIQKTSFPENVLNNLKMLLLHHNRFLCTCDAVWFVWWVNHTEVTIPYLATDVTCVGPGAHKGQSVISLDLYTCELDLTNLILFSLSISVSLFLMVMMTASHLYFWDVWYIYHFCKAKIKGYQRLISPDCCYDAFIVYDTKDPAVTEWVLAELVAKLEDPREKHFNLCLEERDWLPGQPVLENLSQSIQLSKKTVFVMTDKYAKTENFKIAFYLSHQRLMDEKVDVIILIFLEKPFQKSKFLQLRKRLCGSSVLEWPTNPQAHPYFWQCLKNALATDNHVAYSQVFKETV
Put plainly: TLR7 inhibition reporter assay (HEK-Blue cells, secreted embryonic alkaline phosphatase reporter). Conditions: HEK-Blue cells overexpressing human TLR7, stimulated with gardiquimod 7.5 μM; read-out: TLR 7 IC50. The procedure, abridged: as §1

Where [1] appears, read: HEK-Blue cells overexpressing human TLR9, stimulated with ODN2006 5 nM, read-out: TLR 9 IC50.
Setting [2] is: HEK-Blue cells overexpressing human TLR9, stimulated with ODN2006 5 nM, 22 hour incubation, reporter readout.
Where [3] appears, read: HEK-Blue human TLR9 reporter cells.

As a reminder, the pIC50 is the IC50 on a negative log10 scale, so that one unit is a factor of ten.

Molecules are shown by their SMILES. pIC50: −log10 of the molar value. Like-named read-outs stand apart in the source and are kept apart here.

`Cn1c(-c2ccc(S(C)(=O)=O)cc2)nc2cc(C3CCN(C4CC5CCC(C4)N5CC4CC4)CC3)c(F)cc21` (single isomer, unassigned) [Example 249, 5-(1-(8-(cyclopropylmethyl)-8-azabicyclo[3.2.1]octan-3-yl)piperidin-4-yl)-6-fluoro-1-methyl-2-(4-(methylsulfonyl)phenyl)-1H-benzo[d]imidazole]: the pIC50 on human TLR8 was less than 4.30; against human TLR9, 7.49; on human TLR9 (setting [1]), 7.49; at human TLR7, 4.67.
For `COc1ccc(-c2nc3ccc(C4CCN(C5CCN(CC(C)C)CC5)CC4)cc3n2CC(F)F)cc1OC` [Example 32, 1-(2,2-difluoroethyl)-2-(3,4-dimethoxyphenyl)-6-(1′-isobutyl-[1,4′-bipiperidin]-4-yl)-1H-benzo[d]imidazole], the pIC50 is less than 4.30 on human TLR8, 6.68 on human TLR9 (setting [2]), 6.67 at human TLR9 (setting [1]) and 5.24 at human TLR7.
Turning to `Cc1cc(C2CCN(C3CC4CCC(C3)N4C3COC3)CC2)cc2c1nc(-c1ccc(S(C)(=O)=O)cc1)n2C` (single isomer, unassigned) [Example 158, 1,4-dimethyl-2-(4-(methylsulfonyl)phenyl)-6-(1-(8-(oxetan-3-yl)-8-azabicyclo[3.2.1]octan-3-yl)piperidin-4-yl)-1H-benzo[d]imidazole], the pIC50 is less than 4.60 at human TLR8, 6.80 against human TLR9, 5.79 on human TLR9 (setting [1]) and less than 4.60 at human TLR7.
In the case of `Cn1c(-c2ccc(S(C)(=O)=O)cc2)nc2ccc(C3CCN(C4CCCN(C5COC5)CC4)CC3)c(F)c21` (stereo not shown) [Example 314, 7-fluoro-1-methyl-2-(4-(methylsulfonyl)phenyl)-6-(1-(1-(oxetan-3-yl)azepan-4-yl)piperidin-4-yl)-1H-benzo[d]imidazole], the pIC50 at human TLR8 was less than 4.30; on human TLR9 (setting [1]), 6.72; against human TLR9 (setting [3]), 6.72; at human TLR7, 5.21.
Regarding `COc1ccc(-c2nc3ccc(C4CCN(C5CCN(CC(C)C)CC5)CC4)cc3n2C(C)C)cc1OC` [Example 30, 2-(3,4-dimethoxyphenyl)-6-(1′-isobutyl-[1,4′-bipiperidin]-4-yl)-1-isopropyl-1H-benzo[d]imidazole], the pIC50 is less than 4.30 on human TLR8, 6.60 against human TLR9 (setting [2]), 6.60 at human TLR9 (setting [1]) and 5.01 on human TLR7.
As for `Cn1c(-c2ccc(S(C)(=O)=O)cc2)nc2ccc(C3CCN(C4CC5CCC(C4)N5C4CCC4)CC3)c(F)c21` (single isomer, unassigned) [Example 270, 6-(1-(8-cyclobutyl-8-azabicyclo[3.2.1]octan-3-yl)piperidin-4-yl)-7-fluoro-1-methyl-2-(4-(methylsulfonyl)phenyl)-1H-benzo[d]imidazole], the negative logarithm of the IC50 (pIC50) at human TLR8 is less than 4.30; on human TLR9, 7.19; on human TLR9 (setting [1]) it was 7.19; at human TLR7, 4.75.
For `CCn1c(-c2ccc(OC)c(OC)c2)nc2cc(C3CCN(C4CCN(CC(C)C)CC4)CC3)ccc21` [Example 41, 2-(3,4-dimethoxyphenyl)-1-ethyl-5-(1′-isobutyl-[1,4′-bipiperidin]-4-yl)-1H-benzo[d]imidazole], the pIC50 is 5.80 at human TLR8, 6.40 against human TLR9 (setting [2]), 6.39 on human TLR9 (setting [1]) and 5.43 on human TLR7.
For the compound `COc1ccc(-c2nc3cc(C4CCN(C5CCN(CC(C)C)CC5)CC4)ccc3n2C)cc1OC` [Example 34, 2-(3,4-dimethoxyphenyl)-5-(1′-isobutyl-[1,4′-bipiperidin]-4-yl)-1-methyl-1H-benzo[d]imidazole], the pIC50 at human TLR8 is less than 4.30; on human TLR9 (setting [2]), 6.77; at human TLR9 (setting [1]), 6.76; at human TLR7 it was 4.80.
Consider `COc1cc(-c2nc3c(C)cc(C4CCN(C5CC6CCC(C5)N6C(C)C)CC4)cc3n2C)cn2ncnc12` (stereo not shown) [Example 357, 6-(6-(1-(8-isopropyl-8-azabicyclo[3.2.1]octan-3-yl)piperidin-4-yl)-1,4-dimethyl-1H-benzo[d]imidazol-2-yl)-8-methoxy-[1,2,4]triazolo[1,5-a]pyridine], for which the negative logarithm of the IC50 (pIC50) is 5.10 on human TLR8, 7.49 at human TLR9 (setting [1]), 7.49 at human TLR9 (setting [3]) and 6.52 on human TLR7.
Take `Cn1c(-c2ccc(S(C)(=O)=O)cc2)nc2ccc(C3CCN(C4CCN(C5CCC5)CC4)CC3)c(F)c21` [Example 262, 6-(1′-cyclobutyl-[1,4′-bipiperidin]-4-yl)-7-fluoro-1-methyl-2-(4-(methylsulfonyl)phenyl)-1H-benzo[d]imidazole]: the pIC50 at human TLR8 was less than 4.30; against human TLR9, 6.77; on human TLR9 (setting [1]), 6.77; on human TLR7, 4.85.
